In patent publication US20100137313A1 (ASTRAZENECA AB, priority 2008, published 2010):

Target: S. pneumoniae Topoisomerase IV ATPase (ParE) (Streptococcus pneumoniae serotype 4, UniProt Q59961)
Assay: S. pneumoniae Topoisomerase IV ATPase inhibition
Type: biochemical
Conditions: values marked * are an average of two or more data points, read-out: % Inh (13 μM) of S. pneumoniae Topoisomerase IV ATPase
Procedure, shortened: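 ParE ATPase (1.25 nM) run with 160 μM ATP and 5 μg/ml sheared salmon sperm DNA in Tris pH 8.0, Mg2+, glycerol, DTT, Brij-35. Phosphate released read by malachite green/molybdate absorbance at 650 nm. IC50 from 10 compound concentrations; DMSO (2%) as 0% and EDTA (20 μM) as 100% inhibition.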

Sequence of S. pneumoniae Topoisomerase IV ATPase (ParE) (Q59961 whole entry): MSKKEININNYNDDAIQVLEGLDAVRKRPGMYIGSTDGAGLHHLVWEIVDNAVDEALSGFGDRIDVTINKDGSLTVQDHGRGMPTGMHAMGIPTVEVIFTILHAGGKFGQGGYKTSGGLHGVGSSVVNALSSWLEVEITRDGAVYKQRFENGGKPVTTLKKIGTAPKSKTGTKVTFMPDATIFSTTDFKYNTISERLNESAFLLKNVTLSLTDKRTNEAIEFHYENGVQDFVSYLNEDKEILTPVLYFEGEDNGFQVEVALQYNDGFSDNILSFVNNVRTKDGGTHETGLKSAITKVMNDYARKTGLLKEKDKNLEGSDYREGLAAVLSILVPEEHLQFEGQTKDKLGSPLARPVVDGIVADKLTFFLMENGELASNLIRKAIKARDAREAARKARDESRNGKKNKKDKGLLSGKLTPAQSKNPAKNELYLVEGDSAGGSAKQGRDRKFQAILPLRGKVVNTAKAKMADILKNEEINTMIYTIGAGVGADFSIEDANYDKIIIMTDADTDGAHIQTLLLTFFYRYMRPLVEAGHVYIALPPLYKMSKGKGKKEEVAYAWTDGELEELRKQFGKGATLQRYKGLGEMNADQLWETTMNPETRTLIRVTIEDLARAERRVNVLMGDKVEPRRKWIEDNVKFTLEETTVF

SMILES	inhibition at 13 µM [%]
CCS(=O)(=O)NC(=O)c1cc(-c2cnc(Nc3cc(C)cc(C)c3)nc2-n2ccc(C(F)(F)F)n2)cnc1OC [Example 822, 5-{2-[(3,5-dimethylphenyl)amino]-4-[3-(trifluoromethyl)-1H-pyrazol-1-yl]pyrimidin-5-yl}-N-(ethylsulfonyl)-2-methoxypyridine-3-carboxamide]	100
COC1CCN(c2nc(Nc3ccc(F)c(Cl)c3)ncc2-c2cncc(C(=O)O)c2)CC1 [Example 249, 5-[2-[(3-chloro-4-fluorophenyl)amino]-4-(4-methoxypiperidin-1-yl)pyrimidin-5-yl]pyridine-3-carboxylic acid]	70.8
Cc1cc(C(F)(F)F)nn1-c1nc(Nc2ccc(F)c(Cl)c2)ncc1-c1cc(C(=O)NS(C)(=O)=O)c(=O)n(C)c1 [Example 1049, 5-(2-(3-Chloro-4-fluorophenylamino)-4-(5-methyl-3-(trifluoromethyl)-1H-pyrazol-1-yl)pyrimidin-5-yl)-1-methyl-N-(methylsulfonyl)-2-oxo-1,2-dihydropyridine-3-carboxamide]	99
COc1cc(C)cc(Nc2ncc(-c3cncc(C(=O)O)c3)c(-n3nc(C(F)(F)F)cc3C)n2)c1 [Example 777, 5-{2-[(3-methoxy-5-methylphenyl)amino]-4-[5-methyl-3-(trifluoromethyl)-1H-pyrazol-1-yl]pyrimidin-5-yl}pyridine-3-carboxylic acid]	100
COCCCNc1nc(Nc2ccc(F)c(Cl)c2)ncc1-c1nc(C)c(C(=O)O)s1 [Example 509, 2-{2-[(3-chloro-4-fluorophenyl)amino]-4-[(3-methoxypropyl)amino]pyrimidin-5-yl}-4-methyl-1,3-thiazole-5-carboxylic acid]	100
COc1cc(F)cc(Nc2ncc(-c3cccc(C(=O)O)c3)c(-n3ccc(C(F)(F)F)n3)n2)c1 [Example 893, 3-(2-(3-fluoro-5-methoxyphenylamino)-4-(3-(trifluoromethyl)-1H-pyrazol-1-yl)pyrimidin-5-yl)benzoic acid]	99
CCOC(=O)CNc1nc(Nc2ccc(F)c(Cl)c2)ncc1-c1cncnc1 [Example 54, ethyl 2-[[2-[(3-chloro-4-fluorophenyl)amino]-5-pyrimidin-5-ylpyrimidin-4-yl]amino]acetate]	77.5
COCCCNc1nc(Nc2ccc(F)c(Cl)c2)ncc1-c1nc(C(=O)OC)cs1 [Example 212, Methyl 2-(2-(3-chloro-4-fluorophenylamino)-4-(3-methoxypropylamino)pyrimidin-5-yl)thiazole-4-carboxylate]	14.5
O=C(O)[C@@H]1CCCN1c1cccc(-c2cnc(Nc3ccc(F)c(Cl)c3)nc2-n2ccc(C(F)(F)F)n2)c1 [Example 599, 1-(3-{2-[(3-chloro-4-fluorophenyl)amino]-4-[3-(trifluoromethyl)-1H-pyrazol-1-yl]pyrimidin-5-yl}phenyl)-L-proline]	94
O=C(O)c1cncc(-c2cnc(Nc3ccc(F)c(Cl)c3)nc2NCCCc2nc3ccccc3[nH]2)c1 [Example 271, 5-(4-(3-(1H-benzo[d]imidazol-2-yl)propylamino)-2-(3-chloro-4-fluorophenylamino)-pyrimidin-5-yl)nicotinic acid]	86.6
CC(=O)Nc1cc(C(=O)O)cc(-c2cnc(Nc3ccc(F)c(Cl)c3)nc2-n2ccc(C(F)(F)F)n2)c1 [Example 1150, 3-acetamido-5-(2-(3-chloro-4-fluorophenylamino)-4-(3-(trifluoromethyl)-1H-pyrazol-1-yl)pyrimidin-5-yl)benzoic acid]	100
COCCNc1nc(Nc2ccc(F)c(Cl)c2)ncc1-c1cncc(C(=O)O)c1 [Example 234, 5-[2-[(3-chloro-4-fluorophenyl)amino]-4-(2-methoxyethylamino)-pyrimidin-5-yl]pyridine-3-carboxylic acid]	73.2
O=C(O)/C=C/c1cccc(-c2cnc(Nc3ccc(F)c([N+](=O)[O-])c3)nc2N2CCOCC2)c1 [Example 448]	82
CNc1ncc(-c2cnc(Nc3cc(OC)cc(OC)c3)nc2-n2ccc(C(F)(F)F)n2)cc1C(=O)O [Example 586, 5-(2-(3,5-dimethoxyphenylamino)-4-(3-(trifluoromethyl)-1H-pyrazol-1-yl)pyrimidin-5-yl)-2-(methylamino)nicotinic acid]	100
COc1cc(Nc2ncc(-c3cnc(OCCNC(C)=O)c(C(=O)O)c3)c(-n3nc(C(F)(F)F)cc3C)n2)cc(OC)c1 [Example 957, 2-(2-acetamidoethoxy)-5-(2-(3,5-dimthoxyphenylamino)-4-(5-methyl-3-(trifluoromethyl)-1H-pyrazol-1-yl)pyrimidin-5-yl)nicotinic acid]	100
O=C(O)c1cc(-c2cnc(Nc3ccc(F)c(Cl)c3)nc2-n2ccc(C(F)(F)F)n2)ccn1 [Example 1068, 4-(2-(3-Chloro-4-fluorophenylamino)-4-(3-(trifluoromethyl)-1H-pyrazol-1-yl)pyrimidin-5-yl)picolinic acid]	100
CONC(=O)c1cncc(-c2cnc(Nc3ccc(F)c(Cl)c3)nc2-n2ccc(NC(C)=O)n2)c1 [Example 549, 5-{4-[3-(acetylamino)-1H-pyrazol-1-yl]-2-[(3-chloro-4-fluorophenyl)amino]-pyrimidin-5-yl}-N-methoxypyridine-3-carboxamide]	94
NC(=O)c1cc(-c2cnc(Nc3ccc(F)c(Cl)c3)nc2-n2ccc(C(F)(F)F)n2)ccn1 [Example 496, 4-{2-[(3-chloro-4-fluorophenyl)amino]-4-[3-(trifluoromethyl)-1H-pyrazol-1-yl]pyrimidin-5-yl}pyridine-2-carboxamide]	100
COc1ncc(-c2cnc(Nc3cccc(Cl)c3)nc2-n2ccc(C(F)(F)F)n2)cc1C(=O)O [Example 742, 5-{2-[(3-chlorophenyl)amino]-4-[3-(trifluoromethyl)-1H-pyrazol-1-yl]pyrimidin-5-yl}-2-methoxypyridine-3-carboxylic acid]	100
COc1cc(F)cc(Nc2ncc(-c3cncc(C(=O)O)c3)c(-n3ccc(C(F)(F)F)n3)n2)c1 [Example 914, 5-(2-(3-fluoro-5-methoxyphenylamino)-4-(3-(trifluoromthyl)-1H-pyrazol-1-yl)pyrimidin-5-yl)nicotinic acid]	100
COc1ncc(-c2cnc(Nc3cc(C)cc(Cl)c3)nc2-n2nc(C(F)(F)F)cc2C)cc1C(=O)NS(C)(=O)=O [Example 803, 5-{2-[(3-chloro-5-methylphenyl)amino]-4-[5-methyl-3-(trifluoromethyl)-1H-pyrazol-1-yl]pyrimidin-5-yl}-2-methoxy-N-(methylsulfonyl)pyridine-3-carboxamide]	100
O=C(O)c1cncc(-c2cnc(Nc3ccc(F)cc3)nc2N2CCOCC2)c1 [Example 435]	51
CCCS(=O)(=O)NC(=O)c1cc(-c2cnc(Nc3cc(C)cc(C)c3)nc2-n2ccc(C(F)(F)F)n2)cnc1OC [Example 824, 5-{2-[(3,5-dimethylphenyl)amino]-4-[3-(trifluoromethyl)-1H-pyrazol-1-yl]pyrimidin-5-yl}-2-methoxy-N-(propylsulfonyl)pyridine-3-carboxamide]	100
